# Reference: ChEMBL document CHEMBL5096158, “HIV latency reversal agents: A potential path for functional cure?” (Eur J Med Chem, 2021)
# Columns and labels:
# [1] = system: Human immunodeficiency virus 1; assay: Reversal of HIV-1 latency in human ACH-2 cells assessed as increase in GFP positive cells incubated for 24 hrs by flow cytometry; assay type: functional, organism-based, ACH-2 cell line; details: Human immunodeficiency virus 1, ACH-2, 24 h
# [2] = Cytotoxicity against human ACH-2 cells assessed as reduction in cell viability incubated for 48 hrs by WST-8 assay; assay type: toxicity, cell-based
# [3] = Cytotoxicity against human U1 cells assessed as reduction in cell viability incubated for 48 hrs by WST-8 assay; assay type: toxicity, cell-based
# [4] = Cytotoxicity against human PBMC cells assessed as reduction in cell viability incubated for 48 hrs by WST-8 assay; assay type: toxicity, cell-based
# [5] = system: Human immunodeficiency virus 1; assay: Reactivation of HIV-1 latency in human J-Lat Tat-GFP Clone A1 cells assessed as increase in GFP expression at 375 pM incubated for 24 hrs by flow cytometry; assay type: functional
# [6] = system: Human immunodeficiency virus 1; assay: Reactivation of HIV-1 latency in human J-Lat Tat-GFP Clone A1 cells assessed as increase in GFP expression at 23 pM incubated for 24 hrs by flow cytometry; assay type: functional
# [7] = system: Human immunodeficiency virus 1; assay: Reactivation of HIV-1 latency in human CD4+ve Th cells assessed as increase in GFP expression at 3 nM incubated for 24 hrs by flow cytometry; assay type: functional
# [8] = system: Human immunodeficiency virus 1; assay: Reactivation of HIV-1 latency in human U1 cells assessed as fold increase in HIV transcription by measuring GFP expression at 6 nM incubated for 24 hrs in presence of JQ1 by flow cytometry; assay type: functional
# [9] = system: Human immunodeficiency virus 1; assay: Reactivation of HIV-1 latency in human U1 cells assessed as fold increase in HIV transcription by measuring GFP expression at 6 nM incubated for 24 hrs by flow cytometry; assay type: functional
# [10] = system: Human immunodeficiency virus 1; assay: Reactivation of HIV-1 latency infected in GFP-fused human J-Lat 9.2 cells assessed as increase in GFP expression at 1 uM incubated for 24 hrs by flow cytometry; assay type: functional
# [11] = Inhibition of HIV-1 latency infected in human U1 cells assessed as increase in p24 expression level incubated for 48 hrs by ELISA; assay type: functional, cell-based; details: Human immunodeficiency virus 1, U1, 48 h
# [12] = molecular target: Protein kinase C gamma type (Homo sapiens, UniProt P05129); assay: Displacement of 3H-PDBu from recombinant human PKCgamma incubated for 25 mins by scintillation counter analysis
# [13] = system: Human immunodeficiency virus 1; assay: Reactivation of HIV-1 latency infected in GFP-fused human J-Lat C11 cells assessed as increase in GFP expression incubated for 48 hrs by flow cytometry; assay type: functional, organism-based; details: Human immunodeficiency virus 1, J-Lat C11, 48 h
# [14] = system: Human immunodeficiency virus 1; assay: Reactivation of HIV-1 latency infected in GFP-fused human J-Lat 10.6 cells assessed as increase in GFP expression incubated for 48 hrs by flow cytometry; assay type: functional, organism-based; details: Human immunodeficiency virus 1, J-Lat 10.6, 48 h
# [15] = system: Human immunodeficiency virus 1; assay: Reversal of HIV-1 latency in human J-Lat 9.2 cells assessed as increase in GFP expression incubated for 24 hrs by flow cytometry; assay type: functional, organism-based; details: Human immunodeficiency virus 1, J-Lat 9.2, 24 h
# [16] = system: Human immunodeficiency virus 1; assay: Reversal of HIV-1 latency in human J-Lat 8.4 cells assessed as increase in GFP expression incubated for 24 hrs by flow cytometry; assay type: functional, organism-based; details: Human immunodeficiency virus 1, J-Lat 8.4, 24 h
# [17] = system: Human immunodeficiency virus 1; assay: Reversal of HIV-1 latency in human J-Lat 10.6 cells assessed as increase in GFP expression incubated for 24 hrs by flow cytometry; assay type: functional, organism-based; details: Human immunodeficiency virus 1, J-Lat 10.6, 24 h
# [18] = system: Human immunodeficiency virus 1; assay: Reversal of HIV-1 latency in human PBMC from HIV infected donors assessed as increase in p24Gag viral protein level incubated for 24 hrs by ELISA; assay type: functional
smiles,measurement,setting,value
CCCCCCCCCCc1ccc2c(c1)N(C)[C@@H](C(C)C)C(=O)NC(CO)C2 (some centres undefined),EC50,[1],25 nM
same,CC50 at 48 h,[2],21100 nM
same,CC50 at 48 h,[3],61200 nM
same,CC50 at 48 h,[4],39900 nM
CCCCCC(=O)O[C@H]1C(C)=C[C@]23C(=O)[C@H](C=C(CO)[C@@H](O)[C@]12O)C1C(C[C@H]3C)C1(C)C (some centres undefined),Activity,[5],50%
same,Activity,[6],20%
same,Activity,[7],100%
C/C=C(\C)C(=O)O[C@H]1C(C)=C[C@]23C(=O)[C@H](C=C(CO)[C@@H](O)[C@]12O)C1C(C[C@H]3C)C1(C)C (some centres undefined),fold change (FC),[8],250
same,fold change (FC),[9],25
CCCc1nc2c(N)nc3ccccc3c2s1,Activity,[10],18%
CC1=C[C@H]2[C@@]3(O)[C@H](C)C[C@]4(OC(=O)Cc5cccc6ccccc56)[C@H]([C@@H]3C=C(CO)C[C@]2(O)C1=O)C4(C)C,EC50,[11],10.2 nM
same,Ki,[12],0.65 nM
CC(=O)O[C@@]12C[C@@H](C)[C@@]3(O)[C@@H](C=C(CO)C[C@]4(O)C(=O)C(C)=C[C@@H]34)[C@@H]1C2(C)C [PROSTRATIN],EC50,[13],768 nM
same,EC50,[14],865 nM
same,EC50,[11],> 1000 nM
same,EC50,[15],45 nM
same,EC50,[16],11 nM
same,EC50,[17],3.3 nM
CO[C@@H](CC[C@H](C)[C@H]1O[C@@]23C[C@H](OC(=O)C[C@H]([C@@H](C)O)OC(=O)C[C@](O)(O2)[C@H](C)CC3(C)C)[C@@H]1C)c1cc(O)ccc1Br [APLYSIATOXIN],Activity,[18],56%
